{"source": "patent US9889135B2", "about": "“Companion diagnostic for CDK4 inhibitors” (Memorial Sloan-Kettering Cancer Center, priority 2013, dated 2018)", "type_in_all_cases": "cell-based, human", "key": {"[1]": {"system": "CEBPα, FABP4 and PPARγ mRNA in LS8107 and LS7785-10 cells", "assay": "adipocyte differentiation marker mRNA", "settings": "seven days", "method": "FIG. 11. […] Cell lines were maintained in DMEM High glucose (HG) supplemented with 10% heat-inactivated fetal bovine serum. Glioma cell lines, DKMG, SNB19, DBTRG-05MG, and […], were maintained in DMEM HG supplemented with 10% fetal bovine serum and 2 mM glutamine. The MCF7 breast cancer cell line was maintained in RPMI-1640 media supplemented with 10% fetal bovine serum and 2 mM glutamine."}, "[2]": {"system": "MDM2 in LS8817 and LS0082 cells", "assay": "MDM2 levels by immunoblot, responder cells", "settings": "two days", "method": "(A) Immunoblot. […] Tubulin was a loading control. (B) Immunoblot.\nAntibodies against CDK4 (3F121), MDM2 (N-20 and SMP14), total RB (IF8), Cyclin A (H432), p16 (C20), p53 (DO-1 and Bp53-12), tubulin (C20) and FLAG (M2) were obtained from Santa Cruz Biotechnology, phospho-Rb 780 (#9307) from Cell Signalling, and ARF (3642) from Abeam, HAUSP (A300-033A) from Bethyl Laboratories. Treated cells were lysed with buffer composed of 50 mM Tris-HCl, pH7.4, 250 mM NaCl, 5 mM EDTA, 0.5% NP40, 2 mM PMSF, and supplemented with protease inhibitors. Eighty micrograms of protein were resolved by SDS-PAGE and transferred to PVDF membranes. Membranes were incubated overnight with antibodies (1:1000). […] Pre-treatment biopsies were collected within two weeks of the first dose and post-treatment biopsies collected after at last three weeks of treatment. Extracts were prepared in 50 mM Tris-HCl, pH7.4, 150 mM NaCl, 1 mM EDTA, 1% NP40, 0.25% sodium deoxycholate and supplemented with mini-protease inhibitor cocktail (Roche). Tumor response was assessed by reference radiologist by CT scan every six weeks for 36 weeks, and every 12 weeks thereafter."}, "[3]": {"system": "LS8817, LS141 and LS0082 cells", "assay": "SA-β-gal and SAHF (HP1γ) senescence staining, responder lines", "excerpt": "Mean percentage standard deviation). […] (A) Senescence-associated β-galactosidase and (B) HP1γ staining for senescence associated heterochromatic foci (SAHF) formation was quantitated for three or more independent experiments for each cell line. […] Representative phase contrast micrographs of cells stained for SA-β-gal or immunofluorescence staining for HP1γ in two of the cell lines before (ctrl) and after (PD) drug treatment are shown in the insets of FIGS. 2A and 2B, respectively. (C) BrdU incorporation. […] Error bars represent the standard deviation of the mean calculated from three independent trials. […] Cell number was quantitated by DAPI staining and β-galactosidase staining quantitated as a proportion of total cells. Senescence associated heterochromatic foci were quantitated after cells were fixed with 4% paraformaldehyde, permeabilized with 0.1% Triton, blocked with 2% FBS, and stained with antibodies against HP1γ (1:5000 dilution, 2MOD-1G6 Millipore). Senescent cells were identified by immunofluorescence after treatment of slides with anti-mouse secondary antibodies and quantitation of focal SAHF as a percent of total cells (Leica Upright Confocal SP5 confocal microscope). […] Cell area was measured by with Metamorph software to calculate relative area per cell."}, "[4]": {"system": "seven RB-positive patient derived WD/DDLS cell lines", "assay": "BrdU incorporation in liposarcoma cell lines", "settings": "asynchronously growing cells, 48 hours", "method": "FIG. 1A-C. […] Mean percentage of BrdU incorporation or annexin V+/7-AAD− cells was calculated from three or more independent experiments. Error bars represent standard deviation (*p<0.05).\nCell lines were developed from WD/DDLS tumors resected from surgical patients after obtaining informed consent. LS8817 and LS0082 have previously been described using the nomenclature DDLS8817 and WD0082. DNA was extracted from cell lines using standard protocols (QIAGEN DNEasy) and lineage confirmed by copy number array to confirm amplification of segment 12q13-15 (Agilent 244K according to manufacturer's specifications). Analysis of comparative genomic hybridization data was performed using a custom pipeline, which conducts the standard circular binary segmentation from the R/bioconductor DNA copy library and processes all samples with the RAE algorithm (47). […]\nshRNA were delivered in the pLKO.1 vector (Sigma) and infected cells selected using puromycin (1 μg/ml); infection with a virus carrying a scramble control ([…]) was used as a control in all experiments utilizing shRNA. […] G0 content was determined by staining with propidium iodine and FACS analyses (49).\nCells were stained with BrdU (20 μM for two hours) or annexin V as previously described (22, 48). […] was determined by staining with propidium iodine and FACS analyses (49)."}}, "data": [{"compound": "CC(=O)c1c(C)c2cnc(Nc3ccc(N4CCNCC4)cn3)nc2n(C2CCCC2)c1=O", "note": "[PD0332991]", "values": [{"measurement": "CEBPα, FABP4 and PPARγ mRNA, markers of differentiated adipocytes", "setting": "[1]", "value": "None of these markers increased"}, {"measurement": "MDM2 reduction", "setting": "[2]", "value": "approximately three-fold"}, {"measurement": "number of SA-β-gal or SAHF positive cells", "setting": "[3]; seven days after exposure", "value": "significant increase"}, {"measurement": "concentration giving a significant increase in SA-β-gal or SAHF positive cells", "setting": "[3]; seven days, concentrations as low as", "value": "≤ 100", "unit": "nM"}, {"measurement": "incorporation of bromodeoxyuridine (BrdU)", "setting": "[4]", "value": "significant reduction"}]}]}
